Laboratory results: patent US11814372B2, “Agonists of EPHA and their uses” (CASE WESTERN RESERVE UNIVERSITY, priority 2017, dated 2023)

Legend:
[1] = target: T1, EphA2 (Homo sapiens, UniProt P29317); assay: EphA2 activation in HEK 293-A2 cells (pEphA/B immunoblot); format: cell-based; parameters: expressed in transfected cells; host or cells: HEK 293 (HEK 293-A2)
Description: (§1) Cells were plated in 24-well dishes at a density of 100,000 cells/well and grown for 24 hours prior to stimulation with appropriate compounds and ephrins for the given amounts of time. Compounds were prepared in DMSO at 500 times the final concentrations and 0.2% DMSO was used as vehicle control. Following treatment, cells were lysed directly in SDS Gel Loading Buffer and immunoblotted as described previously. Immunoprecipitation and immunofluorescence staining was performed as described. For immunoprecipitation, 300,000 cells/well were plated in 6-well dishes and lysed in modified RIPA Buffer (20 mM Tris-HCl pH 7.4, 20 mM NaF, 150 mM NaCl, 10% glycerol, 0.1% SDS, 0.5% DCA, 2 mM EDTA, 1% Triton X-100) following treatment. Either […] of ephrin-A1-Fc, or […] of EphA2 mouse monoclonal antibody (Clone D7, Millipore) were used, and mouse IgG was used as a negative control for EphA2 IP.
(§2) To determine whether the EphA2 agonist activity of doxazosin is cell-context specific, we evaluated the effects of doxazosin on additional cell types. We first utilized HEK 293 cells overexpressing EphA2 (HEK 293-A2) that we described previously. […] Next we tested PC-3 cells that express high levels of endogenous EphA2 receptor. […] We next evaluated the time-course of activation in both MDA-231-A2 and HEK 293-A2 cells upon treatment with a single 50 μM dose of doxazosin.

[2] = test system: MDA-MB-231, A172-A2 and PC3-DAB2IP KD cells; assay: Chemotactic cell migration toward hepatocyte growth factor (HGF); format: cell-based; conditions: all three cell lines; lesser degree than in the haptotactic assay
[3] = test system: DU145 and PC-3 cell xenografts; conditions: previously shown, independent of α1-adrenoreceptor; cited from earlier work
[4] = target: T1, EphA2; assay: Internalization of endogenous EphA2 in parental MDA-MB-231 cells (immunofluorescence); format: cell-based; conditions: two hours, 50 μM
Description: as §1
(§3) Similar to other receptor tyrosine kinases, activation of the EphA2 receptor by its ligand, ephrin-A1, results in receptor internalization and eventual degradation. […] This was first performed using the U373 glioma cell line engineered to overexpress EphA2.

[5] = target: T2, EphA3 (Homo sapiens, UniProt P29320); assay: Eph receptor activation in HEK 293 cells overexpressing EphA3; format: cell-based; conditions: HEK 293 cells overexpressing EphA3, compared to EphA2 and EphA4
T2 construct: expressed in transfected cells; host or cells: HEK 293
T2 sequence (P29320 21-983): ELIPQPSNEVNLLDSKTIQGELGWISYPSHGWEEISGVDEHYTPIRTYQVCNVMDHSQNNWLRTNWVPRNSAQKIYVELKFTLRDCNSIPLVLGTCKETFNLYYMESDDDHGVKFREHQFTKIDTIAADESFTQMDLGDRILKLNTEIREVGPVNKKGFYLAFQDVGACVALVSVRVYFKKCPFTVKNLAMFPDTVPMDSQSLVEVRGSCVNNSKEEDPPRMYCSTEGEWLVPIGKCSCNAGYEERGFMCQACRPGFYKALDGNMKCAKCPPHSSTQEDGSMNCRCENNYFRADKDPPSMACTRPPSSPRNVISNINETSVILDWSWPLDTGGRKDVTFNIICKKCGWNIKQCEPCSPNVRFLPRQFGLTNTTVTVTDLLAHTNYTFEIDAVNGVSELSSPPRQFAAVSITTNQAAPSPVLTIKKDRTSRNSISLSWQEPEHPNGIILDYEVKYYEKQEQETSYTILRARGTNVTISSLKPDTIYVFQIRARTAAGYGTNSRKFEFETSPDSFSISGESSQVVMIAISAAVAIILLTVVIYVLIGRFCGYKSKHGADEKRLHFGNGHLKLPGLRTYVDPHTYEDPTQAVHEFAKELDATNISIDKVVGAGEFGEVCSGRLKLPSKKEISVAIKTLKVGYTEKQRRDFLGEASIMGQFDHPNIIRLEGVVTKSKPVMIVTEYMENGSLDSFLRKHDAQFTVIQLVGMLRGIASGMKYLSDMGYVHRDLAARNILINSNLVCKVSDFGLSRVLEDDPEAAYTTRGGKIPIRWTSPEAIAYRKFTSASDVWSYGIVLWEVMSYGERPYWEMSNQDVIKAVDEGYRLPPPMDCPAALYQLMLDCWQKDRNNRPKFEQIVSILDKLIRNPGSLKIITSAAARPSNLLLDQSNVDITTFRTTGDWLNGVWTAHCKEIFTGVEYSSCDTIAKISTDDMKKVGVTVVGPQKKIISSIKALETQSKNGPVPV
Description: (§4) Cells were plated in 24-well dishes at a density of 100,000 cells/well and grown for 24 hours prior to stimulation with appropriate compounds and ephrins for the given amounts of time. Compounds were prepared in DMSO at 500 times the final concentrations and 0.2% DMSO was used as vehicle control. Following treatment, cells were lysed directly in SDS Gel Loading Buffer and immunoblotted as described previously. […] For this purpose, HEK 293 cell lines overexpressing EphA1, EphA2, EphA3, EphA4, and EphB3 kinases were utilized.

[6] = target: T3, EphA4 (Homo sapiens, UniProt P54764); assay: Eph receptor activation in HEK 293 cells overexpressing EphA4; format: cell-based; conditions: HEK 293 cells overexpressing EphA4, 60 minutes
T3 construct: expressed in transfected cells; host or cells: HEK 293
Description: as §4

[7] = test system: PC-3 cells; assay: Cell rounding analysis; format: cell-based, human; conditions: 50 µM, 30 or 60 min
Text: As we first reported in 2000, EphA2 activation on PC-3 cells by ephrin-A1 induced rapid cell rounding, a phenomenon that is correlated with inhibition of integrin function.

[8] = target: T1, EphA2; assay: EphA2 receptor internalization in U373-A2 glioma cells (immunofluorescence); format: cell-based; parameters: expressed in transfected cells; host or cells: MDA-MB-231 (MDA-231-A2), HEK 293 (HEK 293-A2), A172 (A172-A2), U373 (U373-A2); conditions: 60 min, 50 μM DZ or 1 μg/ml ephrin-A1-Fc
Description: as §1, §3

[9] = target: T4, EphA4 LBD (Homo sapiens, UniProt P54764); assay: Isothermal titration calorimetry (ITC) binding; conditions: read-out: dissociation constant (KD)
T4 construct: made in house
Description: Production of the 181-residue EphA4 ligand binding domain (LBD, residues 29-209) and isothermal titration calorimetry (ITC) experiments were performed as previously described. […] By superimposing HSQC spectra, the shifted HSQC peaks could be identified and further assigned to the corresponding residues of the EphA4 ectodomain. The degree of perturbation was measured by an integrated chemical shift index (CSI) calculated by the formula [(ΔH)^2+(ΔN)^2/5]^1/2.

[10] = target: T1, EphA2; assay: Activation of endogenous EphA2 in PC-3 cells (pEphA/B immunoblot); format: cell-based; parameters: host or cells: PC-3; conditions: endogenous EphA2, 30 minutes
Description: as §1, §2

T1 sequence (P29317 24-976): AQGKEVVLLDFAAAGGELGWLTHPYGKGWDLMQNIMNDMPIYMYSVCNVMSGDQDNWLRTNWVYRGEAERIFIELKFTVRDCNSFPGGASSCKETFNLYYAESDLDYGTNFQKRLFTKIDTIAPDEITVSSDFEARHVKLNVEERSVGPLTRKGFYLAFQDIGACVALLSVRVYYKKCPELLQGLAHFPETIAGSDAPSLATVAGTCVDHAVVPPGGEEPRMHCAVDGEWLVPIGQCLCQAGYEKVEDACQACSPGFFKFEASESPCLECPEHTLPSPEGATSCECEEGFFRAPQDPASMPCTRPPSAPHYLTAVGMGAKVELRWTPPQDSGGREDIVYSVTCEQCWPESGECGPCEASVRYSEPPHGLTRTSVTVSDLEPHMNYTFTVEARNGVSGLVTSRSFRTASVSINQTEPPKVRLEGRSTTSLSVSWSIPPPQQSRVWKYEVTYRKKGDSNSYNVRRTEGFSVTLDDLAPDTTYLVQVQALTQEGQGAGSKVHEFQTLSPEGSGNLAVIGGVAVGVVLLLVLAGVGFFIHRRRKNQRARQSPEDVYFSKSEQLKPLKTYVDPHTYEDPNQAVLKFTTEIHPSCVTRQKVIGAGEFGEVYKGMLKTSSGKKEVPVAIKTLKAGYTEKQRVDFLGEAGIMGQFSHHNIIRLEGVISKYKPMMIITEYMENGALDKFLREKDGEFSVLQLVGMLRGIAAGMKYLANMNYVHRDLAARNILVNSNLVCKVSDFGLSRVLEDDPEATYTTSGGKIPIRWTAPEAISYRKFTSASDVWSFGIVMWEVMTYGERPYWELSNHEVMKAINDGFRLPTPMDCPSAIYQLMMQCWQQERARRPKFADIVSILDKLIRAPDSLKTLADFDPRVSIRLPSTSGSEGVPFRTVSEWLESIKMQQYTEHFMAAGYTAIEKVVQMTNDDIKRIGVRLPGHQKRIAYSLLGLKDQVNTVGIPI
T4 sequence (P54764 29-209, species assumed): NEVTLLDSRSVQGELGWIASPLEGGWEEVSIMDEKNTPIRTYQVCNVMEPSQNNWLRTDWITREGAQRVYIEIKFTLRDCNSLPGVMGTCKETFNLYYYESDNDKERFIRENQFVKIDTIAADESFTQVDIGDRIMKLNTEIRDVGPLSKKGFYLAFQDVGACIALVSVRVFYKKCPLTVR
T3 sequence (P54764 20-986, species assumed): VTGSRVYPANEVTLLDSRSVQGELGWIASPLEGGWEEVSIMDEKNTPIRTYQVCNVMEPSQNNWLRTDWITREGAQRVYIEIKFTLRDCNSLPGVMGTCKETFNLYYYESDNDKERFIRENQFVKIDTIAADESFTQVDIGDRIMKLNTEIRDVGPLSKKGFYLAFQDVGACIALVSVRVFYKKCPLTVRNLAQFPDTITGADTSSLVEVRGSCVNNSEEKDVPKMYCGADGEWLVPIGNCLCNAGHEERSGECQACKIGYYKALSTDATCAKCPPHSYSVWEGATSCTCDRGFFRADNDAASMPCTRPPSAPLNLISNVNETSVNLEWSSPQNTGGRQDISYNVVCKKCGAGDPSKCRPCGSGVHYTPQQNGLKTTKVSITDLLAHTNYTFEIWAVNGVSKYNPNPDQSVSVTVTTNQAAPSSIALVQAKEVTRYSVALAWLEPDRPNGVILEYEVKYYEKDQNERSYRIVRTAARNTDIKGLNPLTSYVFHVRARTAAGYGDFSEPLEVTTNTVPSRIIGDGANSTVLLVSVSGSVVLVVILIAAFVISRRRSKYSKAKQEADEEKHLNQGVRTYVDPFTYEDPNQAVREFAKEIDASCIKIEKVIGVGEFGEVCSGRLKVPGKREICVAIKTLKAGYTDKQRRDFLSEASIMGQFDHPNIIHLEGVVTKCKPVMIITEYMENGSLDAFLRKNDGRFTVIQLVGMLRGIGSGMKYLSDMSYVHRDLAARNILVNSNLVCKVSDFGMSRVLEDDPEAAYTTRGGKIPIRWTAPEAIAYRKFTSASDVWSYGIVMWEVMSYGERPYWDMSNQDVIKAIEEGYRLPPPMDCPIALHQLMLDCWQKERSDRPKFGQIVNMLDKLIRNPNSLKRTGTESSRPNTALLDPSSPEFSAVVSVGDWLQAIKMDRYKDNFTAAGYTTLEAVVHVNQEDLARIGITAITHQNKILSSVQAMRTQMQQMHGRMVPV

COc1cc2nc(N3CCN(C(=O)C4COc5ccccc5O4)CC3)nc(N)c2cc1OC (stereo not drawn) [doxazosin]
concentration at which significant EphA2 activation starts ([1]; HEK 293-A2 cells, 30 minutes): 25 µM
time at which EphA2 activation became evident ([1]; HEK 293-A2 cells, single 50 μM dose): 10 min
EphA2 kinase activation, Eph receptor panel ([1]; HEK 293 cells overexpressing EphA2, 60 minutes): activated both EphA2 and EphA4 kinases
chemotactic cell migration toward HGF [2]: dose-dependent inhibition
subcutaneous growth of DU145 and PC-3 cell xenografts [3]: moderately decrease subcutaneous growth
internalization of endogenous EphA2 [4]: significant internalization of the endogenous EphA2
EphA3 activation, Eph receptor panel [5]: weak
EphA4 kinase activation, Eph receptor panel [6]: activated both EphA2 and EphA4 kinases
cell rounding [7]: caused rounding of PC-3 cells
EphA2 internalization [8]: significant EphA2 internalization
Kd [9]: 12.4 µM
concentration at which EphA2 activation became evident [10]: 50 µM
